Assay results reported in patent US11234984B2, “Solid dispersion” (Shizuoka Prefectural University Corporation, priority 2017, dated 2022).
≈ marks a conversion by molar mass, not a printed value. Like-named read-outs stand apart in the source and are kept apart here.

Experiments:
[1] = Test Example 2. Absorbability of the solid dispersion containing the compound A in rats; format: in vivo; details: male, Crl:CD (SD), rat, plasma, po, 30 mg/kg, single dose 30 mg/kg as compound A, mean ± SD n=3
Method: A single dose of 10 mg/kg or 30 mg/kg, as the compound A, of the solid dispersions of Example 2 and Comparative Example 10, and the sample of Comparative Example 11 suspended in a 1% carboxymethylcellulose aqueous solution was orally administered to fasted male rats (8 weeks old, Crl:CD (SD), Japan Charles River Laboratories). A crystalline form of the compound A was used as a control (Comparative Example 12). A collection time was 0.5, 1, 2, 4, 8, and 24 hours after administration, and about 300 μL of blood was collected at each time point from vena caudalis (n=3). The obtained blood was centrifuged at 1500×g, 4° C. for 15 minutes to obtain a plasma. The concentration of the compound A in the plasma was measured by HPLC (Shiseido and Hitachi High-Technologies Corporation). A time to reach the highest concentration in the plasma (Tmax), the highest concentration in the plasma (Cmax) and an area under the plasma concentration-time curve (AUC) were calculated from the change in the concentration in the obtained plasma. Here, values in the table are the mean value±standard deviation of three examples.

[2] = Test Example 1. Solubility Test; format: physicochemical; details: thermodynamic from solid, shaken at 37° C. for 2 hours, mean of two measurements, read-out: Solubility of Compound A
Method: 5 mL of a first fluid (pH1.2) or 5 mL of a […] for an elution test in Japanese Pharmacopoeia was added to the solid dispersions of Example 1 and Comparative Examples 1 to 8, and the sample of Comparative Example 9, the solid dispersions were ground using a glass rod or a spatula, and then shaken at 37° C. for 2 hours. 400 μL of a mixed solution (acetonitrile/water=3/2) was immediately added to 600 μL of the sample solution filtered off using a 0.45 μm filter, and a concentration of the compound A in the sample solution was measured by HPLC (Shimadzu Corporation). Here, values in the table are the mean values obtained by repeating measurements twice.

N#Cc1cc(-c2nc3c(O)ncnc3s2)ccc1Oc1ccccc1 [Comparative Example 11, 2-(3-cyano-4-phenoxyphenyl)-7-hydroxythiazolo[5,4-d]pyrimidine]
Tmax [1]: 3.7 ± 3.8 h

N#Cc1cc(-c2nc3c(O)ncnc3s2)ccc1Oc1ccccc1 [Comparative Example 9, 2-(3-cyano-4-phenoxyphenyl)-7-hydroxythiazolo[5,4-d]pyrimidine]
solubility at 2 h ([2]; pH 1.2, simulated gastric fluid, First fluid for dissolution test (pH1.2)): 0.39 µg/mL (≈ 1.13 µM) | solubility at 2 h ([2]; pH 6.8, aqueous buffer, Second fluid for dissolution test (pH6.8)): 0.49 µg/mL (≈ 1.41 µM)
